Test results published in patent publication US7417062B2, “Substituted arylamides” (ChemoCentryx, Inc., priority 2004, dated 2008).

Target: T1, CCXCKR2 receptor (Homo sapiens, UniProt P25106)
T1 construct: host or cells: MCF-7 (endogenous) and/or MDA-MB-435S transfected with hRDC1 in pcDNA3.1(+)
Test: Displacement of 125I-labeled SDF-1 from the CCXCKR2 receptor (radioligand binding, determination of IC50 values)
Details: not given
Protocol: The ability of the compounds to displace the labeled chemokine from the CCXCKR2 receptor sites at multiple concentrations was then determined with the screening process.
Compounds that were deemed effective modulators were able to displace at least 50% of the SDF-1 from the CCXCKR2 receptor at concentrations at or below 10 micromolar (μM) and more preferably at concentrations at or below 2 micromolar. At present, especially preferred compounds can displace at least 50% of the SDF-1 from the CCXCKR2 receptor at concentrations at or below 500 nM. Exemplary compounds that met these criteria are reproduced in Table B below. All compounds were prepared as described in the Examples above, or by related methods substituting readily available starting materials.
Reagents and Cells. ^125I-labeled SDF-1 was purchased from Perkin-Elmer Life Sciences, Inc. (Boston, Mass.). The MCF-7 (adenocarcinoma; mammary gland) cell line was obtained from the American Type Culture Collection (Manassas, Va.) or and was cultured in DMEM (Mediatech, Herndon, Va.) supplemented with 10% fetal bovine serum (FBS) (HyClone Logan, Utah) and bovine insulin (0.01 mg/mL) (Sigma, St. Louis, Mo.) at 37° C. in a humidified incubator at a 5% CO2/air mixture. CCXCKR2 transfected MDA-MB-435S were produced as described below. MDA-MB-435S human breast cancer line, was purchased from ATCC, and cultured in DMEM/10% FBS medium. The complete coding sequence of the gene encoding CCXCKR2 (a.k.a.CXCR7, hRDC1), was isolated from MCF-7 cells using μMACs mRNA isolation kit (Miltenyi Biotec, Auburn, Calif.). DNA contamination was removed by DNase digestion via RNeasy columns (Qiagen, Inc., Valencia, Calif.) and cDNA was generated using GeneAmp RNA PCR Core Kit (Applied Biosystems, Foster City, Calif.). PCR of cDNA samples was performed using Taq PCR Master Mix kit (Qiagen, Inc.) and hRDC1 primers harboring 5′ and 3′ Not I sites (hRDC1F 5′-[…]-3′ (SEQ ID NO:1), hRDC1R 5′-[…]-3′ (SEQ ID NO:2)) Not I digested PCR product was ligated into Not I digested pcDNA3.1(+)(Invitrogen, Carlsbad, Calif.) and screened for orientation and sequence confirmed. Plasmid DNA was then isolated from overnight bacterial cultures by Maxiprep (Qiagen, Inc.). Plasmid DNA (10 μg) was added to MDA-MB-435s cells and cells were electroporated (0.22 kV, 960 uF) via Gene Pulser (Biorad laboratories, Hercules, Calif.). 48 hr post-electroporation, cells were transferred to selection medium (1000 ug/ml G418).
Binding Analysis. Target compounds were tested to determine their ability to bind with CCXCKR2 sites on MCF-7 and/or MDA-MB-435S cells. Efficiency-maximized radioligand binding using filtration protocols as described in Dairaghi D J, et al., HHV8-encoded vMIP-I selectively engages chemokine receptor CCR5. Agonist and antagonist profiles of viral chemokines., J. Biol. Chem. 1999 Jul. 30; 274(31): 21569-74 and Gosling J, et al., Cutting edge: identification of a novel chemokine receptor that binds dendritic cell-and T cell-active chemokines including ELC, SLC, and TECK., J. Immunol. 2000 Mar. 15; 164(6):2851-6 was used.
In these assays, MCF-7 and/or MDA-MB-435S cells were interrogated with the target compounds and the ability of these compounds to displace ^125I radiolabeled SDF-1 was assessed using the protocol described in Dairaghi and Gosling. The target compounds were added to the plate to the indicated concentration and were then incubated with cells followed by the addition of radiolabeled chemokine (^125I SDF-1) for 3 hr at 4° C. in the following binding medium (25 mM HEPES, 140 mM NaCl, 1 mM CaCl2, 5 mM MgCl2 and 0.2% bovine serum albumin, adjusted to pH 7.1). All assays were then incubated for 3 hrs at 4° C. with gentle agitation. Following incubation in all binding assays, reactions were aspirated onto PEI-treated GF/B glass filters (Packard) using a cell harvester (Packard) and washed twice (25 mM HEPES, 500 mM NaCl, 1 mM CaCl2, 5 mM MgCl2, adjusted to pH 7.1). […]

T1 sequence (P25106 whole entry): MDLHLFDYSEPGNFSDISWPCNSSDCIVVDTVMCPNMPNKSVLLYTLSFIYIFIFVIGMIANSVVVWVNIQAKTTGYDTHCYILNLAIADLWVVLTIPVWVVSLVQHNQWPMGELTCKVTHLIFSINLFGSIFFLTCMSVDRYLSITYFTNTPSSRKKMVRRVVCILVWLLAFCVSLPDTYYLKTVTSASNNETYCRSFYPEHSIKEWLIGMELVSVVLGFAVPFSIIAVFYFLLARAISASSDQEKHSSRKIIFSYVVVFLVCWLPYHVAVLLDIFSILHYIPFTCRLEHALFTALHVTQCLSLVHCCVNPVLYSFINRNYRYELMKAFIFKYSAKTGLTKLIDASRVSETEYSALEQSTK

Compound	IC50
COc1cc(C(=O)N(Cc2cc3ccccc3cn2)C[C@@H]2CCCN2C[C@@H]2C[C@H]3CC[C@@H](C2)N3)cc2c1OC(C)(C)O2 [Example 63, 7-Methoxy-2,2-dimethyl-benzo[1,3]dioxole-5-carboxylic acid {(S)-1-[(1S,3S,5R)-1-(8-aza-bicyclo[3.2.1]oct-3-yl)methyl]-pyrrolidin-2-ylmethyl}-isoquinolin-3-ylmethyl-amide]	< 500 nM

Same assay, conditions: MCF-7 and/or MDA-MB-435S cells expressing CCXCKR2; 125I SDF-1; 3 hr at 4° C.; read-out: Activity (ability to displace 125I SDF-1 from CCXCKR2)

Compound	IC50
COc1cc(C(=O)N(Cc2cc3ccccc3s2)C[C@@H]2C[C@@H]3CCCC[C@@H]3N2)cc2c1OC(C)(C)O2 [Example 61, 7-Methoxy-2,2-dimethyl-benzo[1,3]dioxole-5-carboxylic acid benzo[b]thiophen-2-ylmethyl-[(2S,3aS,7aS)-1-(octahydro-indol-2-yl)methyl]-amide]	< 500 nM
COc1cc(C(=O)N(Cc2cc3ccccc3o2)C[C@@H]2CCCN2CC2CCCCC2)cc(OC)c1OC [Example 4, N-Benzofuran-2-ylmethyl-N—(S)-(1-cyclohexylmethyl-pyrrolidin-2-ylmethyl)-3,4,5-trimethoxy-benzamide]	< 500 nM
CCOC(=O)c1ccc(-c2cccc(N(C[C@@H]3CCCN3CC3CC3)C(=O)c3ccc(OC)c(OC)c3)c2)cc1 [Example 36, (S)-3′-[(1-Cyclopropylmethyl-pyrrolidin-2-ylmethyl)-(3,4-dimethoxy-benzoyl)-amino]-biphenyl-4-carboxylic acid ethyl ester]	< 10000 nM
COc1ccc(C(=O)N(Cc2cnc3ccccc3c2)C[C@@H]2CCCN2CC2CCCCC2)cc1OC [Example 2, N—(S)-(1-Cyclohexylmethyl-pyrrolidin-2-ylmethyl)-3,4-dimethoxy-N-quinolin-3-ylmethyl-benzamide]	< 2000 nM
COc1ccc(C(=O)N(Cc2ccc3ccccc3c2)C[C@@H]2CCCN2CC2CCCCC2)cc1OC [Example 1, N—(S)-(1-Cyclohexylmethyl-pyrrolidine-2-ylmethyl)-3,4-dimethoxy-N-naphthalen-2-ylmethyl-benzamide]	< 500 nM
COc1ccc(C(=O)N(C[C@@H]2CCCN2CC2CCCCC2)c2cccc(-c3csc(C)n3)c2)cc1OC	< 2000 nM
COc1cc(C(=O)N(Cc2cc3ccccc3cn2)C[C@@H]2CCCN2CC2CNC2)cc2c1OC(C)(C)O2 [Example 39, 7-Methoxy-2,2-dimethyl-benzo[1,3]dioxole-5-carboxylic acid ((S)-1-azetidin-3-ylmethyl-pyrrolidin-2-ylmethyl)-isoquinolin-3-ylmethyl-amide]	< 2000 nM
COc1cc(C(=O)N(CCC2CCCN2C)Cc2ccc3ccccc3n2)cc(OC)c1OC (centres unmarked) [Example 11]	< 500 nM
COc1cc(C(=O)N(Cc2ccc3ccccc3c2)C[C@@H]2CCCN2C2CCC2)cc2c1OC(C)(C)O2 [Example 59, 7-Methoxy-2,2-dimethyl-benzo[1,3]dioxole-5-carboxylic acid ((S)-1-cyclobutyl-pyrrolidin-2-ylmethyl)-naphthalen-2-ylmethyl-amide]	< 500 nM
COc1cc(C(=O)N(CCC2CCCN2C)Cc2nc3ccccc3s2)cc(OC)c1OC (centres unmarked) [Example 13, N-Benzothiazol-2-ylmethyl-3,4,5-trimethoxy-N-[2-(1-methyl-pyrrolidin-2-yl)-ethyl]-benzamide]	< 500 nM
COc1cc(C(=O)N(CCC2CCCN2C)Cc2ccc3ccccc3c2)cc(OC)c1OC (centres unmarked) [Example 5, 3,4,5-Trimethoxy-N-[2-(1-methyl-pyrrolidin-2-yl)-ethyl]-N-naphthalen-2ylmethyl-benzamide]	< 500 nM
COc1cc(C(=O)N(CCC2CCCN2C)Cc2nc3ccccc3n2C)cc(OC)c1OC (centres unmarked) [Example 14, 3,4,5-Trimethoxy-N-(1-methyl-1H-benzoimidazol-2-ylmethyl)-N-[2-(1-methyl-pyrrolidin-2-yl)-ethyl]-benzamide]	< 10000 nM
COc1cc(C(=O)N(CCCN2CCCCC2C)c2cccc(-c3ccccc3)c2)cc(OC)c1OC (centres unmarked) [Example 17, N-Biphenyl-3-yl-3,4,5-trimethoxy-N-[3-(2-methyl-piperidin-1-yl)-propyl]-benzamide]	< 500 nM
COc1ccc(C(=O)N(Cc2cc3ccccc3o2)C[C@@H]2CCCN2CC2CCCCC2)cc1OC [Example 3, N-benzofuran-2-ylmethyl-N—(S)-(1-cyclohexylmethyl-pyrrolidin-2-ylmethyl)-3,4-dimethoxy-benzamide]	< 500 nM
COc1cc(C(=O)N(Cc2ccc3ccccc3n2)C[C@@H]2CCCN2C2CCC2)cc2c1OC(C)(C)O2 [Example 43, 7-Methoxy-2,2-dimethyl-benzo[1,3]dioxole-5-carboxylic acid ((S)-1-cyclobutyl-pyrrolidin-2-ylmethyl)-quinolin-2-ylmethyl-amide]	< 500 nM
COc1cc(C(=O)N(CCC2CCCN2C)Cc2cccc3ccccc23)cc(OC)c1OC (centres unmarked) [Example 6, 3,4,5-Trimethoxy-N[2-(1-methyl-pyrrolidin-2-yl)-ethyl]-N-naphthalen-1-ylmethyl-benzamide]	< 2000 nM
COc1cc(C(=O)N(Cc2cc3ccccc3cn2)C[C@@H]2CCCN2C2CCC2)cc2c1OC(C)(C)O2 [Example 62, 7-Methoxy-2,2-dimethyl-benzo[1,3]dioxole-5-carboxylic acid ((S)-1-cyclobutyl-pyrrolidin-2-ylmethyl)-isoquinolin-3-ylmethyl-amide]	< 500 nM
COc1cc(C(=O)N(CCC2CCCN2C)Cc2cc3ccccc3n2C)cc(OC)c1OC (centres unmarked)	< 500 nM
COc1cc(C(=O)N(CCC2CCCN2C)Cc2cnc3ccccc3c2)cc(OC)c1OC (centres unmarked) [Example 10]	< 10000 nM
COc1cc(C(=O)N(CCC2CCCN2C)Cc2cc3ccccc3[nH]2)cc(OC)c1OC (centres unmarked) [Example 15, N-(1H-Indol-2ylmethyl)-3,4,5-trimethoxy-N-[2-(1-methyl-pyrrolidin-2-yl)-ethyl]-benzamide]	< 2000 nM
COc1ccc(C(=O)N(C[C@@H]2CCCN2CC2CC2)c2cccc(-c3cccc(C#N)c3)c2)cc1OC [Example 34, N-(3′-Cyano-biphenyl-3-yl)-(S)—N-(1-cyclopropylmethyl-pyrrolidin-2-ylmethyl)-3,4-dimethoxy-benzamide]	< 10000 nM
COc1cc(C(=O)N(C[C@@H]2C[C@@H]3CCCC[C@@H]3N2)C(C)c2cc3ccccc3cn2)cc2c1OC(C)(C)O2 (stereo partly drawn) [Example 66, 7-Methoxy-2,2-dimethyl-benzo[1,3]dioxole-5-carboxylic acid (1-isoquinolin-3-yl-ethyl)-[(2S,3aS,7aS)-1-(octahydro-indol-2-yl)methyl]-amide]	< 500 nM
COc1cc(C(=O)N(C[C@@H]2CCCN2)c2cccc(-c3ccccc3)c2)ccc1OC(F)F [Example 31, N-Biphenyl-3-yl-4-difluoromethoxy-3-methoxy-(S)—N-pyrrolidin-2-ylmethyl-benzamide]	< 500 nM
COc1ccc(C(=O)N(C[C@@H]2CCCN2CC2CCCCC2)c2cccc(-n3ccnn3)c2)cc1OC [Example 76, N-((S)-1-Cyclohexylmethyl-pyrrolidin-2-ylmethyl)-3,4-dimethoxy-N-(3-[1,2,3]triazol-1-yl-phenyl)-benzamide]	< 10000 nM
COc1cc(C(=O)N(Cc2csc(-c3ccccc3)n2)C[C@@H]2CCCN2)cc2c1OC(C)(C)O2 [Example 55, 7-Methoxy-2,2-dimethyl-benzo [1,3]dioxole-5-carboxylic acid (2-phenyl-thiazol-4-ylmethyl)-pyrrolidin-2-ylmethyl-amide]	< 500 nM
